Measurements published in patent publication US11970462B1, “Ethyl 3-[4,4-bis(4-chlorophenyl)-2,5-dioxoimidazolidin-1-yl]propanoate as an antimicrobial compound” (KING FAISAL UNIVERSITY, priority 2024, dated 2024).

Legend:
Format in all cases: cell-based
Conditions in all cases: after 10, 20, 40 and 60 minutes at all dilutions 1:100, 1:200, 1:400, 1:800
[1] = tested on: Staphylococcus aereus; assay: Antimicrobial testing by agar dilution, St. Aereus
Description: (§1) The antimicrobial properties of the ethyl 3-[4,4-bis(4-chlorophenyl)-2,5-dioxoimidazolidin-1-yl]propanoate were studied by the method of agar dilution. Test solutions of each compound was prepared in concentration of 1% using dimethylformamide as a solvent then they are diluted in physiological solution to obtain the final experimental dilutions 1:100, 1:200, 1:400, 1:800. The effect of these substances are compared with furacillin in a controlable study. The testing microbes used were gram positive bacteria Staphylococcus aereus, gram negative bacteria Escherichia Coli, Pseudomonas aeruginosa and Candida albicans fungi were taken. The experiments used for this survey were meat-pentonlu agar (EPA) for cultivation of bacteria and Saburo environment for fungi. Each experiment used 1 ml of test solution on each plate 500 min. Add 2 drops of emulsified with microbes feel. All experimental samples were taken from the agar after 10, 20, 40, 60 minutes in the environment on the basis of Patrk planted. Bacteria were cultivated at a temperature of 37° C. for 1 day and the mushroom was kept in a thermostat for 2 hours at a temperature of 28° C. in the. Then results were checked.

[2] = tested on: Pseudomonas aeruginosa; assay: Antimicrobial testing by agar dilution, Ps. aeruginosa
Description: as §1

[3] = tested on: Escherichia Coli; assay: Antimicrobial testing by agar dilution, E. Coli
Description: as §1

[4] = tested on: Candida albicans; assay: Antimicrobial testing by agar dilution, Candida albicans
Description: as §1

CCOC(=O)CCN1C(=O)NC(c2ccc(Cl)cc2)(c2ccc(Cl)cc2)C1=O [ethyl 3-[4,4-bis(4-chlorophenyl)-2,5-dioxoimidazolidin-1-yl]propanoate]
higher inhibition activity: inhibition activity (in words), Staphylococcus aereus [1] | inhibition activity (in words), Pseudomonas aeruginosa [2] | inhibition activity (in words), Escherichia Coli [3] | inhibition activity (in words), Candida albicans [4]
